One data set relates to human hair follicles. Nature of the data set: Evaluation of the ratio of hair follicle telogen in DHT-treated anagen hair follicle tissue (ex vivo culture). Format: cell-based. As to conditions: for Telogen ratio: 6 days vs day 0. The protocol:
(§1) The ratio of hair follicle telogen and the expression level of hair follicle cell proliferation-related factor proteins depending on whether 3-hydroxypropionic acid was applied or not were evaluated according to the following methods.
The human hair follicles or scalp tissues provided for research purposes (IRB No. 4-2023-1052; Institutional Review Board, Severance Medical Center, Yonsei University College of Medicine) were washed several times with PBS to remove residual impurities, and randomly divided into each group. The hair follicles and scalp tissues were cultured in Williams' Medium E (Sigma) supplemented with 2 mM L-glutamine (Sigma-Aldrich), 10 μg/ml insulin (Sigma-Aldrich), 100 ng/ml hydrocortisone (Sigma-Aldrich), 0.1% fungizone (Gibco, USA), and 1% antibiotic-antimycotic (Gibco), and 1% penicillin-[…] (Gibco) at 37° C. in 5% CO2.
To induce the telogen in the anagen hair follicle tissue, the test composition was treated with 1 μM dihydrotestosterone (DHT). The medium was replaced every 3 days and cultured for 6 days. The ratio of hair follicle telogen was visually evaluated based on the ratio of hair follicles in which the telogen occurred for 6 days compared to day 0.

Data set [1] deals with Human follicle dermal papilla cells. Briefly: Human follicle dermal papilla cell viability (WST / CCK-8). Format: cell-based. The settings on record: for Human follicle dermal papilla cell viability: 24 hours. The protocol: (§2) Human follicle dermal papilla cells (PromoCell GmbH) were cultured in human follicle dermal papilla cells growth medium (PromoCell GmbH) supplemented with fetal calf serum (FCS), bovine pituitary extract (BPE), basic fibroblast growth factor (bFGF), and insulin at 37° C. and 5% CO2.
The cultured human follicle dermal papilla cells were divided into 5×10^3 cells in a 96-well plate, and when the cells reached 80% or more confluency, they were treated with the 3-hydroxypropionic acid aqueous solution according to Preparation Example 1 at four concentrations ([…]), and then cultured for 24 hours. WST substrate solution (high sensitivity water soluble tetrazolium salt, CCK-8, DOJINDO) was then added to the medium, and cultured at 37° C. for 2 hours.
During the culture, a […] formazan was produced by the reaction between WST and intracellular dehydrogenase, and the absorbance (OD, wavelength 450 nm) was measured.
In Equation 1, the ‘experimental group’ is the group treated with an aqueous solution containing 3HP; the ‘control group’ is the medium containing only the WST substrate; and the ‘negative control group’ is the group in which a medium containing WST substrate was treated with an aqueous solution of 0% 3HP.

Data set [2] relates to 5α-reductase gene (Srd5α1). Briefly: 5α-reductase gene expression level (real-time PCR, GAPDH-normalised) in human follicle dermal papilla cells. Format: cell-based. The settings on record: for mrna remaining at 0.0125 % / mrna remaining at 0.025 % / mrna remaining at 0.05 %: Homo sapiens, 24 h, 24 hours; for mrna remaining at 0.0125 %: 3HP 0.0125 wt. %; for mrna remaining at 0.025 %: 3HP 0.025 wt. %; for mrna remaining at 0.05 %: 3HP 0.05 wt. %. The protocol: as §2
(§3) The cultured human follicle dermal papilla cells were divided into 5×10^4 cells in a 96-well plate, and when the cells reached 80% or more confluency, they were treated with the 3-hydroxypropionic acid aqueous solution according to Preparation Example 1 at four concentrations (3HP concentrations: 0 wt. %, 0.0125 wt. %, 0.025 wt. %, and 0.05 wt. %), and then cultured for 24 hours. Then, the total RNA in the cells was extracted, and cDNA was synthesized from the extracted RNA. The synthesized cDNA was subjected to real-time polymerase chain reaction. And, the relative quantitative analysis of each gene was performed using GAPDH (one of the house-keeping genes). The relative quantification (RQ) value was calculated according to the following Equation 2.
(§4) In the Equation 2, ‘Treatment’ is the group treated with 3HP; ‘Control’ is the group not treated with 3HP; ‘Target gene’ is Srd5α1 and TGF-β1, and ‘House-keeping gene’ is GAPDH.
(In general: Quantitative PCR measures a nucleic acid by following its amplification.)

A further data set deals with Ki67. Nature of the data set: Expression of cell proliferation-related factor protein Ki67 (immunofluorescence) in cultured scalp tissue. The settings on record: 0.1% 3HP, compared to the negative control group. Format: cell-based, human. The protocol: as §1
The human hair follicles or scalp tissues provided for research purposes (IRB No. 4-2023-1052; Institutional Review Board, Severance Medical Center, Yonsei University College of Medicine) were washed several times with PBS to remove residual impurities, and randomly divided into each group. […]
After the scalp tissue was treated with the test composition for 24 hours, the obtained tissue was prepared into a frozen block, and frozen sectioned at a thickness of 5 μm using a Cryostat microtome (Leica Biosystems, Germany), and the tissue sections were attached onto Silane-coated slides. […] Finally, the tissues were fixed with a fixative containing blue fluorescent DAPI (VECTASHIELD® mounting medium with DAPI; Vector laboratories) that stains the cell nucleus, and then images were taken at 100× magnification using a fluorescence microscope (M2; Zeiss). The percentage of Ki67-expressing cells among the total cells labeled with DAPI was measured from the captured images, and a higher value means a higher number of Ki67-expressing cells.

A further data set relates to TGF-β1 gene. Briefly: TGF-β1 gene expression level (real-time PCR, GAPDH-normalised) in human follicle dermal papilla cells. Format: cell-based. The settings on record: for mrna remaining at 0.0125 % / mrna remaining at 0.025 % / mrna remaining at 0.05 %: Homo sapiens, 24 h, 24 hours; for mrna remaining at 0.0125 %: 3HP 0.0125 wt. %; for mrna remaining at 0.025 %: 3HP 0.025 wt. %; for mrna remaining at 0.05 %: 3HP 0.05 wt. %. The protocol:
as §2, §3, §4

The mark [3] stands for this setting: under the treatment concentration.

Regarding `C[C@]12CCC(=O)C[C@@H]1CC[C@@H]1[C@@H]2CC[C@]2(C)[C@@H](O)CC[C@@H]12` [DHT, dihydrotestosterone, reference compound], in the data set with human hair follicles (1 μM DHT alone (telogen inducer), Control 36.667), the Telogen ratio was determined as 40.000%.

On to `O=C(O)CCO` [3HP, 3-hydroxypropionic acid], for which the “Human follicle dermal papilla cell viability” value is listed as 86.684% in data set [1] (3HP 0.025 wt. %, Average, SD 2.561, p-value 0.012 vs negative control (100%)); 85.841% in data set [1] (3HP 0.05 wt. %, Average, SD 0.735, p-value 0.001 vs negative control (100%)); 86.465% in data set [1] (3HP 0.05 wt. %, single run: Once); 75.333% in data set [1] (3HP 0.1%, Average, SD 2.416, p-value 0.003 vs negative control (100%)). Also, the “cell viability (in words)” value in data set [1] (under the above treatment concentrations) is “high”. The mrna remaining at 0.0125 % in data set [2] (single run: Three times) was 92.7%; in data set [2] (single run: Two times) it was 81.5%; in the data set with TGF-β1 gene (single run: Three times), 78.5%; in the data set on TGF-β1 gene (single run: Two times), 86.4%. Moreover, the mrna remaining at 0.025 % in data set [2] (single run: Three times) was 91.4%; in data set [2] (single run: Two times), 88%; with TGF-β1 gene (single run: Three times), 65.5%; with TGF-β1 gene (single run: Two times), 72.3%. Also, the mrna remaining at 0.05 % in data set [2] (single run: Once) came out at 132%; in data set [2] (single run: Three times) it was 135%; in data set [2] (single run: Two times), 113%; with TGF-β1 gene (single run: Once), 131%; in the data set with TGF-β1 gene (single run: Three times) it was 118%; with TGF-β1 gene (single run: Two times), 140%. Also, the “expression of the 5α-reductase gene (in words)” value in data set [2] (setting [3]) is “significantly inhibited”. In the data set on human hair follicles (0.1%, 0.5%, and 1.0% 3HP, compared to the DHT control group), the “hair follicle telogen ratio (in words)” value is “significantly decreased”. Moreover, the Telogen ratio in the data set with human hair follicles (DHT (1 μM) + 0.5% 3HP, DHT alone 40.000) is listed as 0.000%; in the data set with human hair follicles (DHT (1 μM) + 1.0% 3HP, DHT alone 40.000), 0.000%. In addition, the “proliferation effect of hair follicle cells (in words)” value in the data set on Ki67 is “significantly increased”. Further, in the data set with TGF-β1 gene (setting [3]), the “expression of the TGF-β1 gene (in words)” value was “significantly inhibited”.

With `CC(C)(C)NC(=O)[C@H]1CC[C@H]2[C@@H]3CC[C@H]4NC(=O)C=C[C@]4(C)[C@H]3CC[C@]12C` [Finasteride, reference compound], the Telogen ratio in the data set on human hair follicles (DHT (1 μM) + 0.5 mM Finasteride, DHT alone 40.000) was determined as 0.000%.

For `O=C(O)CCCC[C@@H]1SC[C@@H]2NC(=O)N[C@@H]21` [Biotin, reference compound], the Telogen ratio with human hair follicles (DHT (1 μM) + 2 ng/ml Biotin, DHT alone 40.000) amounted to 10.000%.

The values are drawn from patent publication US20260294852A1, “COSMETIC COMPOSITION FOR PREVENTING, ALLEVIATING OR AMELIORATING ALOPECIA” (LG CHEM, LTD., priority 2023, published 2026).
